From the supplement of paper PMC11061612

Legend:
Test in all cases: Bliss excess, mean over the matrix (fraction); higher = more synergy
[1] = tested on: SW948 (Colorectal Carcinoma)
Summary of the method: (§1)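 Bliss excess equals the observed combination effect minus the expected value EA + EB − EA·EB, where EA and EB are the effects of each agent alone. Combination Emax is the second-highest inhibition within the matrix. Inhibition was scaled from CellTiter-Glo 2.0 luminescence, with 0 set by vehicle wells and 1 by blank wells, after 72 hours of two-drug dosing of cells plated in 1536-well plates.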

[2] = tested on: U-118-MG (Low Grade Glioma)
Summary of the method: as §1

[3] = tested on: 647-V (Bladder Carcinoma)
Summary of the method: as §1

[4] = tested on: SLVL (B-Cell Non-Hodgkin's Lymphoma)
Summary of the method: as §1

[5] = tested on: HuO9 (Osteosarcoma)
Summary of the method: as §1

[6] = tested on: EFM-192A (Breast Carcinoma)
Summary of the method: as §1

[7] = tested on: D-392MG (Glioblastoma)
Summary of the method: as §1

[8] = tested on: SNU-61 (Colorectal Carcinoma)
Summary of the method: as §1

[9] = tested on: MSTO-211H (Mesothelioma)
Summary of the method: as §1

[10] = tested on: A172 (Glioblastoma)
Summary of the method: as §1

[11] = tested on: EW-22 (Ewing's Sarcoma)
Summary of the method: as §1

[12] = tested on: SKN-3 (Head and Neck Carcinoma)
Summary of the method: as §1

[13] = tested on: KG-1 (Acute Myeloid Leukemia)
Summary of the method: as §1

[14] = tested on: SW48 (Colorectal Carcinoma)
Summary of the method: as §1

[15] = tested on: TYK-nu (Ovarian Carcinoma)
Summary of the method: as §1

[16] = tested on: NOMO-1 (Acute Myeloid Leukemia)
Summary of the method: as §1

[17] = tested on: PA-TU-8902 (Pancreatic Carcinoma)
Summary of the method: as §1

[18] = tested on: YT (Other Blood Carcinomas)
Summary of the method: as §1

[19] = tested on: WSU-DLCL2 (B-Cell Non-Hodgkin's Lymphoma)
Summary of the method: as §1

[20] = tested on: H4 (Low Grade Glioma)
Summary of the method: as §1

| Compound | Bliss excess [1] | Bliss excess [2] | Bliss excess [3] | Bliss excess [4] | Bliss excess [5] | Bliss excess [6] | Bliss excess [7] | Bliss excess [8] | Bliss excess [9] | Bliss excess [10] | Bliss excess [11] | Bliss excess [12] | Bliss excess [13] | Bliss excess [14] | Bliss excess [15] | Bliss excess [16] | Bliss excess [17] | Bliss excess [18] | Bliss excess [19] | Bliss excess [20] |
| --- | --- | --- | --- | --- | --- | --- | --- | --- | --- | --- | --- | --- | --- | --- | --- | --- | --- | --- | --- | --- |
| Cn1cnc2c(F)c(Nc3ccc(Br)cc3Cl)c(C(=O)NOCCO)cc21 [Selumetinib] + CC(C)n1c(=O)n(C)c2cnc3cc(F)c(-c4ccc(OCCCN5CCCCC5)nc4)cc3c21 [AZD1390] (first compound max 10 µM, 7x7, partner max 0.3 µM) | -0.0174 | -0.0587 | -0.0481 | -0.0557 | 0.0143 | -0.0325 | -0.02 | 0.0043 | -0.0367 | -0.0389 | -0.0304 | -0.0318 | 0.0053 | -0.0561 | -0.0523 | -0.0617 | 0.0043 | -0.03 | -0.003 | -0.0503 |
| CC1(C)CCC(CN2CCN(c3ccc(C(=O)NS(=O)(=O)c4ccc(NCC5CCOCC5)c([N+](=O)[O-])c4)c(Oc4cnc5[nH]ccc5c4)c3)CC2)=C(c2ccc(Cl)cc2)C1 [Venetoclax] + C[C@@H](Nc1cc(F)cc(F)c1)c1cc(C(=O)N(C)C)cc2c(=O)cc(N3CCOCC3)oc12 [AZD8186] (first compound max 1 µM, 7x7, partner max 3 µM) | -0.0518 | -0.0383 | -0.0019 | 0.0395 | 0.0776 | -0.0501 | -0.061 | -0.0314 | -0.0052 | -0.0414 | 0.0333 | -0.0192 | 0.114 | -0.0278 | -0.0103 | 0.0654 | -0.0453 | 0.0317 | 0.0951 | -0.0302 |
| COc1cc2c(cc1OCCCCCOc1cc3c(cc1OC)C(=O)N1C=C(C)C[C@H]1C=N3)N=C[C@@H]1CC(C)=CN1C2=O [SG3199] + O=C(c1cc(Cc2n[nH]c(=O)c3ccccc23)ccc1F)N1CCN(C(=O)C2CC2)CC1 [Olaparib] (first compound max 0.001 µM, 7x7, partner max 10 µM) | -0.0092 | -0.0488 | -0.0289 | -0.0314 | -0.0273 | -0.053 | -0.0623 | -0.0453 | -0.0175 | 0.0064 | -0.0544 | -0.0276 | 0.0015 | -0.0321 | -0.046 | -0.0328 | -0.0291 | 0.019 | -0.0058 | -0.0406 |
| CN(CCO)CC[C@H](CSc1ccccc1)Nc1ccc(S(=O)(=O)NC(=O)c2ccc(N3CCC([C@@H](O)c4ccccc4-c4ccc(Cl)cc4)CC3)cc2)cc1S(=O)(=O)C(F)(F)F [AZD4320] + C1CN(CCC1(C(=O)N[C@@H](CCO)C2=CC=C(C=C2)Cl)N)C3=NC=NC4=C3C=CN4 [Capivasertib] (first compound max 1 µM, 7x7, partner max 3 µM) | -0.0497 | -0.0546 | 0.0056 | 0.0563 | 0.0355 | -0.0269 | -0.0649 | -0.038 | -0.0162 | -0.0588 | -0.0341 | -0.0375 | 0.0226 | 0.0148 | -0.038 | -0.0012 | -0.0448 | 0.0135 | 0.0691 | -0.0397 |
| CC(=O)c1c(C)c2cnc(Nc3ccc(N4CCNCC4)cn3)nc2n(C2CCCC2)c1=O [Palbociclib] + CC1(C)CCC(CN2CCN(c3ccc(C(=O)NS(=O)(=O)c4ccc(NCC5CCOCC5)c([N+](=O)[O-])c4)c(Oc4cnc5[nH]ccc5c4)c3)CC2)=C(c2ccc(Cl)cc2)C1 [Venetoclax] (first compound max 10 µM, 7x7, partner max 1 µM) | -0.089 | 0.0308 | -0.0439 | -0.0892 | 0.0056 | -0.0115 | -0.07 | -0.0361 | -0.0922 | -0.003 | 0.0129 | -0.07 | 0.0888 | -0.0251 | -0.0026 | -0.0032 | -0.029 | -0.13 | 0.0277 | 0.0013 |
| CN(CCO)CC[C@H](CSc1ccccc1)Nc1ccc(S(=O)(=O)NC(=O)c2ccc(N3CCC([C@@H](O)c4ccccc4-c4ccc(Cl)cc4)CC3)cc2)cc1S(=O)(=O)C(F)(F)F [AZD4320] + CN(C)CCCOc1ccc(-c2ccc3ncc4c(c3c2)n(C2CCOCC2)c(=O)n4C)cn1 [AZD0156] (first compound max 1 µM, 7x7, partner max 1 µM) | -0.0566 | -0.0537 | 0.0212 | -0.0117 | 0.0143 | -0.0468 | -0.044 | -0.0248 | 0.0078 | -0.0152 | 0.0228 | -0.0296 | 0.0215 | -0.0545 | -0.1 | 0.0017 | -0.0511 | -0.0281 | 0.0117 | -0.0334 |
| CN(CCO)CC[C@H](CSc1ccccc1)Nc1ccc(S(=O)(=O)NC(=O)c2ccc(N3CCC([C@@H](O)c4ccccc4-c4ccc(Cl)cc4)CC3)cc2)cc1S(=O)(=O)C(F)(F)F [AZD4320] + C[C@@H](Nc1cc(F)cc(F)c1)c1cc(C(=O)N(C)C)cc2c(=O)cc(N3CCOCC3)oc12 [AZD8186] (first compound max 1 µM, 7x7, partner max 3 µM) | -0.101 | 0.0018 | 0.0441 | 0.0476 | 0.0515 | 0.0057 | -0.104 | 0.016 | 0.0841 | 0.0387 | -0.0261 | 0.0112 | 0.066 | -0.0048 | -0.0224 | 0.0515 | -0.0139 | 0.0327 | 0.0852 | 0.0521 |
| CC(=O)Nc1cccc(-n2c(=O)n(C3CC3)c(=O)c3c(Nc4ccc(I)cc4F)n(C)c(=O)c(C)c32)c1 [Trametinib] + Cc1nc(-c2cn3c(n2)-c2ccc(-c4cnn(C(C)(C)C(N)=O)c4)cc2OCC3)n(C(C)C)n1 [Taselisib] (first compound max 1 µM, 7x7, partner max 10 µM) | 0.0126 | -0.0083 | 0.106 | 0.134 | 0.0587 | 0.0042 | 0.137 | 0.0995 | 0.122 | 0.0645 | -0.0042 | 0.11 | 0.131 | 0.178 | 0.138 | 0.0306 | 0.108 | -0.0043 | 0.0464 | 0.132 |
| Cc1c2c(nn1C)CSCc1cc(n(C)n1)CSc1cc(c3ccccc3c1)OCCCc1c(C(=O)O)n(C)c3c-2c(Cl)ccc13 [AZD5991] + Cn1cnc2c(F)c(Nc3ccc(Br)cc3Cl)c(C(=O)NOCCO)cc21 [Selumetinib] (first compound max 1 µM, 7x7, partner max 3 µM) | -0.0388 | -0.0054 | 0.0749 | 0.0516 | -0.0386 | -0.0116 | 0.0339 | -0.0079 | -0.006 | 0.0179 | -0.019 | 0.0324 | 0.0316 | 0.0102 | -0.0052 | 0.135 | -0.0466 | -0.0051 | -0.0123 | -0.0265 |
| Cn1cnc2c(F)c(Nc3ccc(Br)cc3Cl)c(C(=O)NOCCO)cc21 [Selumetinib] + CCN(CCO)CCCOc1ccc2c(Nc3cc(CC(=O)Nc4cccc(F)c4)[nH]n3)ncnc2c1 [AZD2811] (first compound max 10 µM, 7x7, partner max 1 µM) | 0.0022 | -0.027 | -0.0038 | -0.0465 | -0.0201 | -0.0285 | -0.0304 | -0.0026 | -0.0137 | -0.0731 | -0.0426 | -0.0166 | 0.0789 | -0.0168 | -0.0169 | 0.0333 | 0.0087 | -0.0336 | -0.0019 | -0.0091 |
| Cc1c2c(nn1C)CSCc1cc(n(C)n1)CSc1cc(c3ccccc3c1)OCCCc1c(C(=O)O)n(C)c3c-2c(Cl)ccc13 [AZD5991] + C[C@@H](Nc1cc(F)cc(F)c1)c1cc(C(=O)N(C)C)cc2c(=O)cc(N3CCOCC3)oc12 [AZD8186] (first compound max 1 µM, 7x7, partner max 3 µM) | -0.0498 | 0.0012 | 0.0458 | -0.0262 | 0.0127 | -0.0207 | 0.0111 | -0.0277 | -0.0019 | -0.004 | -0.0396 | -0.0606 | 0.0031 | -0.0271 | -0.0118 | 0.0361 | -0.0361 | 0.0223 | -0.058 | -0.0054 |
| Cc1cc2ncnn2cc1Nc1ncc2c(n1)n(C1CCOCC1)c(=O)n2C [AZD7648] + C=CCn1c(=O)c2cnc(Nc3ccc(N4CCN(C)CC4)cc3)nc2n1-c1cccc(C(C)(C)O)n1 [AZD1775] (first compound max 10 µM, partner max 1 µM) | -0.047 | -0.0041 | 0.0132 | -0.035 | -0.0298 | 0.0338 | 0.0035 | -0.049 | 0.067 | 0.0587 | -0.0043 | -0.0033 | -0.0652 | -0.0702 | -0.0394 | 0.0204 | 0.0152 | -0.124 | -0.0048 | -0.082 |
| COc1nnc2ccc(N3CCC(c4ccc(OCCN5CCN(C)C(=O)[C@H]5C)cc4)CC3)nn12 [AZD5153] + Cn1cnc2c(F)c(Nc3ccc(Br)cc3Cl)c(C(=O)NOCCO)cc21 [Selumetinib] (first compound max 1 µM, 7x7, partner max 10 µM) | -0.0006 | -0.016 | 0.0604 | -0.0385 | 0.0052 | -0.0096 | 0.0081 | 0.0407 | 0.007 | -0.0304 | -0.0668 | -0.019 | 0.024 | 0.0619 | -0.044 | 0.0443 | -0.0869 | -0.0383 | -0.0365 | -0.0184 |
| COc1cccc(OCCCN)c1-c1cc(Nc2cnc(C#N)cn2)n[nH]1 [Prexasertib] + Cc1cc2ncnn2cc1Nc1ncc2c(n1)n(C1CCOCC1)c(=O)n2C [AZD7648] (first compound max 1 µM, 7x7, partner max 10 µM) | -0.0155 | -0.0584 | -0.0011 | 0.0204 | -0.105 | -0.0199 | -0.0254 | -0.0123 | -0.0059 | -0.0573 | -0.0519 | -0.0564 | -0.0264 | -0.0344 | -0.072 | -0.0388 | -0.0059 | -0.0508 | 0.0071 | -0.0369 |
